According to patent US5348956A, “Substituted cyclopropylamino-1,3,5-triazines” (UCB S.A., priority 1991, dated 1994):
Like-named read-outs stand apart in the source and are kept apart here.

Key:
[1] = test system: amnesia induced by scopolamine; test: multiple-trial passive avoidance: mnemic retention, amnesia induced by scopolamine
Experimental: To this end, the method of multiple-trial passive avoidance has been used. […] The test is carried out on male Sprague-Dawley rats (160-200 g). which are kept in standard cages throughout the experiment. The apparatus used is a transparent square cage with 35 cm sides and 25 cm high, fitted with a grid floor which can be electrified. A rubber insulating mat (10×17 cm) is placed on the floor in one of the corners of the cage.
Each animal is subjected to four tests at times 0, 4, 24 and 28 hours. In the first test (time 0), the animal is placed on the rubber mat and the time which it takes to decide to leave this position to explore the cage is recorded. After 20 seconds of exploration, the rat receives an electric shock (3 seconds duration) in the paws, causing an escape reaction. The rat is immediately removed from the apparatus and replaced in its original cage. In the course of the three subsequent tests (times: 4, 24 and 28 hours), the animal is replaced on the rubber mat and the time taken to leave this position is recorded. As soon as the four paws of the animal rest on the grid, it receives an electric shock and is removed immediately from the apparatus.
At the start of the experiment, the rats are divided into 4 homogeneous groups of 15 animals. Thirty minutes before each test, each group of animals is subjected to a predetermined treatment:
Groups 1 and 2 are used in the first experiment (learning) and groups 3 and 4 in the second experiment (mnemic retention).
The differences found are analyzed statistically by the Mann-Whitney method.

[2] = test system: bronchospasm induced by serotonin; test: bronchospasmolytic activity (Konzett and Roessler), bronchospasm induced by serotonin; assay type: in vivo, Dunkin-Hartley guinea-pig; settings: Cavia porcellus, read-out: Doses (ID50), Serotonin
Experimental: (§1) This activity was measured in the Dunkin-Hartley guinea-pig by the method of H. KONZETT and […] (Naunyn Schmiedebergs Arch. exp. Path. […] The anesthetized (urethane) and curarized (gallamine) guinea-pig is placed under assisted respiration. The endotracheal pressure is recorded. […] The compound to be tested is also administered intravenously two minutes before the administration of the spasmogen and then in 3 to 4 cumulative doses in increasing amounts at intervals of 15 minutes. Six animals per compound to be tested and per spasmogen are used.

[3] = test system: plantar edema induced by immune complexes; test: "reverse passive Arthus" (RPA) test, anti-inflammatory and anti-edema activity; assay type: in vivo, Sprague-Dawley rat; settings: Rattus norvegicus, intravenous
Experimental: The reaction between a soluble antigen and antibodies in the organism may lead to an acute inflammatory reaction accompanied by release of histamine, modification of vascular permeability and formation of a localized edema. […] To this end, the Arthus reaction is induced by subplantar administration of 0.1 ml of heterologous antivalbumin reaginic serum into the right hind paw and by simultaneous intravenous injection of 1 ml/kg ovalbumin (25 mg/ml). The compound to be tested is administered intravenously 30 seconds before induction of the Arthus reaction, in a least 3 different doses. A group of 6 rats is used per dose of compound to be tested. The volume of the paw is measured by plethysmometry before the Arthus reaction and 3 to 5 hours after induction of the Arthus reaction, both in the control animals and in the treated animals. The effect of a compound on the reduction in the edema for each dose and at each measurement time (3 hours and 5 hours) is expressed in % of the edema observed in the control animals. The doses of the compounds (ID30 in μmole/kg) which inhibit by 30%, on average over all the animals, the volume of the edema observed in the control animals are given in Table VII below.

[4] = test system: longitudinal muscles of the ileum contracted by histamine; test: potentiation of the myorelaxing effect of isoprenaline on the ileum; assay type: cell-based, Dunkin-Hartley guinea-pigs; settings: with isoprenaline 10^-7 mole/l; histamine 3.2 μmoles/l
Experimental: (cf. R. A. TURNER, "Screening Methods in Pharmacology", Ed. Acad. Press, San Diego, 1965, chapter IV, pages 43-47). […] Inhibition cycle: When the successive contractions induced by the histamine injections have become reproducible, the compound to be tested is injected immediately after the second wash. The contraction induced by the following injection of histamine is measured and compared with the average of the three preceding contractions caused by the repeated injections of histamine (control contractions). From the result obtained, the percentage inhibition of the contraction is calculated. Several cycles of histamine injection are then performed again, until the contractions of the muscle become reproducible again; the muscle is then ready for testing of another compound. The potentiating effect of a compound is measured in the course of a so-called "potentiation" cycle, which comprises three successive inhibition cycles. […] In the course of the second inhibition cycle, the percentage inhibition of the contraction obtained with the compound to be tested, injected alone at a given dose, is determined. In the third inhibition cycle, isoprenaline and the compound to be tested are injected simultaneously, and the percentage inhibition of the contraction is calculated for the dose used of the compound tested. The same experiments are repeated for each of the doses of the compounds tested.

[5] = multiple-trial passive avoidance: learning; assay type: in vivo, male Sprague-Dawley rats
Experimental: To evaluate whether a compound can promote learning, the following test is carried out. […] Rats which remain on the mat for this period have acquired the avoidance reflex and are replaced in their original cage without receiving the electric shock. […] The results obtained in the test used to evaluate learning are given in columns 3 and 4. […] The results were analyzed by the Student test.

[6] = toxicity, Irwin's test; assay type: in vivo; settings: i.p.; death of two animals out of three within 48 hours
Experimental: Progressive doses of the compound to be tested are administered intraperitoneally to groups of three mice until the lethal dose is reached (dose which causes the death of two animals out of three within 48 hours).

[7] = test system: PMN granulocytes; test: inhibition of the stimulation of PMN granulocytes (chemiluminescence); assay type: cell-based, Rat; settings: for activity at 1 µM: FMLP 3.2×10^-7 mole/liter
From the text: Polymorphonuclear neutrophil granulocytes (PMN) are cells which are mobilized during inflammatory phenomena and which can be stimulated by various compounds, such as, for example, formylmethionyl-leucylphenylalanine (FMLP) or prostaglandins E (PGE1). The PMN granulocytes respond to these extracellular stimuli with an activation of the oxygen metabolism with release of toxic oxygenated metabolites. An excessive response of the PMN granulocytes may be the cause of a painful inflammation and is also accompanied by a reduction in the level of cyclic adenosine monophosphate (cAMP) in these granulocytes. Consequently, compounds which inhibit the respiratory burst of PMN granulocytes or which increase the level of cAMP can be regarded as very important in the treatment of arthritis and asthma. […] Rat PMN granulocytes (5×10^6 /ml) are preincubated in a phosphate buffer ([…], pH 7.4), containing luminol at a concentration of 10^-5 mole per liter, for 15 minutes at 37° C. and then for 5 minutes in the presence of the compound to be treated at a concentration of 10^-6 mole/liter. […] The luminescence which results from the stimulation is measured by means of an LKB 1251 luminometer according to the method of […] and […] (Infection and Immunology, 37, (1982), 34-39). An experimental cycle lasts 38 seconds. The reaction is repeated 9 times for each compound to be tested and the average of the results obtained is calculated.

[8] = test system: anaphylactic release of histamine, guinea-pig lung sections; test: inhibition of the anaphylactic release of histamine (proper effect); assay type: cell-based, Dunkin-Hartley guinea-pigs; settings: Cavia porcellus, in vitro, read-out: Minimum inhibitory dose (MID)
Experimental: (§2) Dunkin-Hartley guinea-pigs which are first passively sensitized by an intravenous injection of 1 ml of isologous antiovalbumin serum are used. Twenty-four hours after the injection, the lungs are then perfused with a Tyrode buffer to evacuate the blood, and then removed and cut into sections of 1 mm. These sections are divided up into test tubes (3 sections per tube) to give 10 experimental groups of lung sections per guinea-pig. A "positive" control group of lung sections is stimulated by addition of an ovalbumin solution (0.1 mg/ml) to induce the anaphylactic release of histamine and serves to determine the maximum amount of histamine (100%) which can be released. A "negative" control group which is not stimulated by ovalbumin serves to determine the naturally released amount of histamine (spontaneous release). In three other groups, the lung sections are incubated at 37° C. for 30 minutes in the ovalbumin solution in the presence of three different doses of the compound to be tested (one dose per group). […] At this dose, isoprenaline inhibits the release of histamine by 30 to 40%, which is verified on a control group treated only with isoprenaline alone at this dose. In addition, a supplementary control group which is not stimulated by ovalbumin is used to detect a possible spontaneous release of histamine by the highest dose of the compound tested. In each group, the histamine released in the incubation medium is measured by spectrofluorometry (D. P. EVANS et al., Life Sci., 12, (1973), 327-336).

[9] = test system: bronchospasm induced by histamine; test: bronchospasmolytic activity (Konzett and Roessler), bronchospasm induced by histamine; assay type: in vivo, Dunkin-Hartley guinea-pig; settings: Cavia porcellus, read-out: Doses (ID50), Histamine
Experimental: as §1

[10] = test system: bronchospasm induced by acetylcholine; test: bronchospasmolytic activity (Konzett and Roessler), bronchospasm induced by acetylcholine; assay type: in vivo, Dunkin-Hartley guinea-pig; settings: Cavia porcellus, read-out: Doses (ID50), Acetylcholine
Experimental: as §1

[11] = test system: anaphylactic release of histamine, guinea-pig lung sections; test: potentiation of the inhibition of anaphylactic histamine release by isoprenaline; assay type: cell-based, Dunkin-Hartley guinea-pigs; settings: with isoprenaline 10^-7 mole per liter
Experimental: as §2

[12] = test system: cAMP in PMN granulocytes; test: increase in the level of cAMP in PMN granulocytes; assay type: cell-based, Rat; settings: […]10^-6 mole per liter; PGE1 10^-6 mole/liter; control 4.3
From the text: Polymorphonuclear neutrophil granulocytes (PMN) are cells which are mobilized during inflammatory phenomena and which can be stimulated by various compounds, such as, for example, formylmethionyl-leucylphenylalanine (FMLP) or prostaglandins E (PGE1). The PMN granulocytes respond to these extracellular stimuli with an activation of the oxygen metabolism with release of toxic oxygenated metabolites. An excessive response of the PMN granulocytes may be the cause of a painful inflammation and is also accompanied by a reduction in the level of cyclic adenosine monophosphate (cAMP) in these granulocytes. […] The reaction is then stopped by addition of 1 ml of propanol. After centrifugation at 15,000 g for 3 minutes, the supernatant is recovered and evaporated and the amount of cAMP in the residue is determined by radioimmunological assay according to the process recommended by the supplier of the reagent used for this purpose (Amersham). A control test is carried out under the same conditions, but in the absence of the compound to be tested.

[13] = intravenous, serotonin-induced bronchospasm
[14] = 3 hours after induction of the Arthus reaction, read-out: Dose (ID30), 3 hours
[15] = 5 hours after induction of the Arthus reaction, read-out: Dose (ID30), 5 hours
[16] = Rattus norvegicus, 10^-6 mole/l, read-out: Residual chemiluminescence
[17] = intravenous, histamine-induced bronchospasm
[18] = intravenous, acetylcholine-induced bronchospasm

Row | SMILES | ED50 [2, 13] | ED30 [3, 14] | ED30 [3, 15] | Minimum potentiating dose (MPD) [4] | Lethal dose [6] | activity at 1 µM [7, 16] | minimal effective concentration [8] | ED50 [9, 17] | ED50 [10, 18] | Minimum potentiating dose (MPD) [11] | other results
1 | Cc1nc(NC2CC2)nc(N2CC3CCC(C2)O3)n1.Cl [Compound 9, 2-Cyclopropylamino-4-methyl-6-(8-oxa-3-azabicyclo[3,2,1]oct-3-yl)-1,3,5-triazine hydrochloride] | 1 µmol/kg | 3.4 µmol/kg | 4.4 µmol/kg | 10.0 µmol/L | 297.8 mg/kg | 82% | 3.2 µM | 0.4 µmol/kg | 2.1 µmol/kg | 3.2 µmol/L | Period of remaining on the mat, group 4 ([1]; 4 hours, 3.0 mg/kg i.p. + 0.5 mg scopolamine): 17.3 s; Period of remaining on the mat, group 4 ([1]; 24 hours, 3.0 mg/kg i.p. + 0.5 mg scopolamine): 38.1 s; Period of remaining on the mat, group 4 ([1]; 28 hours, 3.0 mg/kg i.p. + 0.5 mg scopolamine): 65.2 s; Period of remaining on the mat, group 4 ([1]; time 0, 3.0 mg/kg i.p. + 0.5 mg scopolamine): 3.6 s; Learning, average number of trials, group 2 ([5]; 3.0 mg/kg i.p.): 2.9 trials
2 | CCc1nc(NC2CC2)nc(N2CC3CCC(C2)O3)n1 [Compound 10] | 0.3 µmol/kg | – | – | 1.0 µmol/L | 311.8 mg/kg | 56% | 3.2 µM | 0.1 µmol/kg | 0.5 µmol/kg | 0.32 µmol/L | Period of remaining on the mat, group 4 ([1]; 4 hours, […] i.p. + 0.5 mg scopolamine): 20.3 s; Period of remaining on the mat, group 4 ([1]; 24 hours, […] i.p. + 0.5 mg scopolamine): 78.9 s; Period of remaining on the mat, group 4 ([1]; 28 hours, […] i.p. + 0.5 mg scopolamine): 142.0 s; Period of remaining on the mat, group 4 ([1]; time 0, […] i.p. + 0.5 mg scopolamine): 5.7 s
3 | CCCc1nc(NC2CC2)nc(N2CC(O)C2)n1 [Compound 15] | 0.2 µmol/kg | 39 µmol/kg | 4 µmol/kg | 3.2 µmol/L | > 498 mg/kg | 70% | 10 µM | 0.08 µmol/kg | 0.3 µmol/kg | 3.2 µmol/L | Period of remaining on the mat, group 4 ([1]; 4 hours, 2.5 mg/kg i.p. + 0.5 mg scopolamine): 19.5 s; Period of remaining on the mat, group 4 ([1]; 24 hours, 2.5 mg/kg i.p. + 0.5 mg scopolamine): 94.3 s; Period of remaining on the mat, group 4 ([1]; 28 hours, 2.5 mg/kg i.p. + 0.5 mg scopolamine): 112.7 s; Period of remaining on the mat, group 4 ([1]; time 0, 2.5 mg/kg i.p. + 0.5 mg scopolamine): 9.8 s; Learning, average number of trials, group 2 ([5]; 2.5 mg/kg i.p.): 1.9 trials
4 | CNC(=O)Oc1ccc2c(c1)[C@]1(C)CCN(C)[C@@H]1N2C [physostigmine, reference compound] | – | – | – | – | – | – | – | – | – | – | Period of remaining on the mat, group 4 ([1]; 4 hours, 0.4 mg/kg i.p. + 0.5 mg scopolamine): 17.8 s; Period of remaining on the mat, group 4 ([1]; 24 hours, 0.4 mg/kg i.p. + 0.5 mg scopolamine): 56.2 s; Period of remaining on the mat, group 4 ([1]; 28 hours, 0.4 mg/kg i.p. + 0.5 mg scopolamine): 53.4 s; side effects / toxicity at the active dose ([1]; at the dose active against scopolamine amnesia): at a dose which has side effects and is very close to the toxic dose; action against the amnesic effect of scopolamine ([1]; similar to that of the compounds according to the invention): favorable action against the amnesic effect of scopolamine; Period of remaining on the mat, group 4 ([1]; time 0, 0.4 mg/kg i.p. + 0.5 mg scopolamine): 1.9 s; Learning, average number of trials, group 2 ([5]; 0.4 mg/kg i.p.): 2.3 trials
5 | Cn1c(=O)c2[nH]cnc2n(C)c1=O [theophylline, reference compound] | – | 18 µmol/kg | 10 µmol/kg | 1000.0 µmol/L | – | 100% | 100 µM | – | – | 1000.0 µmol/L | Amount of cAMP produced [12]: 5.0 picomoles per 10^7 cells; ED50 ([2]; iv): 4.6 µmol/kg; inhibition of the stimulation of PMN granulocytes ([7]; 10^-6 mole/l): completely inactive; activity at 100 µM ([7]; Rattus norvegicus, 10^-4 mole/l, read-out: Residual chemiluminescence): 65%; ED50 ([9]; iv): 5.6 µmol/kg; ED50 ([10]; iv): 10 µmol/kg
